# Assay results taken from patent publication US20060030054A1, “Fluorescent probe” (Daiichi Pure Chemicclas Co., LTD., of Tokyo, Japan, priority 2002, published 2006).
# Assays:
# [1] = Complex formation constant from fluorescence intensity change on addition of potassium; format: binding; details: 0.2 M Tris-hydrochloride buffer pH 7.5, potassium chloride, DMF 0.1%, compound 3 μM; read-out: Complex formation constant K^+
# Experimental: (§1) Fluorescence intensity changes of the compound obtained in Example 5 and the compound obtained in Example 7 above were measured with addition of sodium, magnesium, and potassium. Measurements were conducted in 0.2 M Tris-perchlorate buffers at pH 7.5 containing various concentrations of sodium perchlorate and magnesium perchlorate using dimethylformamide (0.1%) as co-solvent when sodium and magnesium were added, and in 0.2 M Tris-hydrochloride buffers at pH 7.5 containing various concentrations of potassium chloride using dimethylformamide (0.1%) as co-solvent when potassium was added. The final concentrations of the compounds obtained in Example 5 and Example 7 were adjusted to be 3 μM. The compound obtained in Example 5 was measured at excitation wavelength of 492 nm and fluorescence wavelength of 513 nm and the compound obtained in Example 7 was measured at excitation wavelength of 504 nm and fluorescence wavelength of […].
# [2] = Complex formation constant from fluorescence intensity change on addition of magnesium; format: binding; details: 0.2 M Tris-perchlorate buffer pH 7.5, magnesium perchlorate, DMF 0.1%, compound 3 μM
# Experimental: as §1
# [3] = Complex formation constant from fluorescence intensity change on addition of sodium; format: binding; details: 0.2 M Tris-perchlorate buffer pH 7.5, sodium perchlorate, DMF 0.1%, compound 3 μM; read-out: Complex formation constant Na^+
# Experimental: as §1
# [4] = Fluorescence intensity change against pH change under co-presence of sodium; format: physicochemical; details: 0.2 M Tris-phosphate buffers at various pH, 500 mM sodium perchlorate, DMF 0.1%
# Experimental: Fluorescence intensity changes of the compound obtained in Example 7 and Sodium Green tetra(tetramethylammonium)salt (Molecular Probes Inc.) against pH change were studied under co-presence of sodium. Measurements were conducted in 0.2 M Tris-phosphate buffers at various pH containing 500 mM of sodium perchlorate using dimethylformamide (0.1%) as a co-solvent. The compound obtained in Example 7 was measured at excitation wavelength of 504 nm and fluorescence wavelength of 522 nm and Sodium Green tetra(tetramethylammonium)salt was measured at excitation wavelength of 508 nm and fluorescence wavelength of 533 nm.
smiles,measurement,setting,value
Cc1cc2c(cc1-c1c3cc(Cl)c(=O)cc-3oc3cc(O)c(Cl)cc13)OCCOCCOCCOCCO2 [Example 7],Kd,[1],410 µM
same,Complex formation constant Mg^+,[2],Unmeasurable
same,Kd,[3],320 µM
same,Susceptibility of fluorescence intensity to pH change compared with Sodium Green tetra(tetramethylammonium)salt,[4],less susceptible to a pH change
